Assay results: ChEMBL document CHEMBL3885881, “DrugMatrix”

Species: Rattus norvegicus
Experiment: DrugMatrix - Regimen: Daily Repeat
Format: toxicity, organism-based, Sprague-Dawley
Parameters: regimen Daily Repeat, gender Male, age 6-8 weeks
Conditions: in vivo, po, route oral GAVAGE, vehicle 100 % WATER; for ABSOLUTE BASOPHIL / ABSOLUTE EOSINOPHIL / ABSOLUTE LYMPHOCYTE / ABSOLUTE MONOCYTE / ABSOLUTE SEGMENTED NEUTROPHIL / BASOPHIL / EOSINOPHIL / ERYTHROCYTE COUNT / HEMATOCRIT / HEMOGLOBIN / LEUKOCYTE COUNT / LYMPHOCYTE / MEAN CORPUSCULAR HEMOGLOBIN / MEAN CORPUSCULAR HEMOGLOBIN CONCENTRATION / MEAN CORPUSCULAR VOLUME / MONOCYTE / NEUTROPHIL / NUCLEATED RED BLOOD CELLS / PLATELET COUNT: tissue Blood; for ALANINE AMINOTRANSFERASE / ALBUMIN / ALKALINE PHOSPHATASE / ASPARTATE AMINOTRANSFERASE / BLOOD UREA NITROGEN / CARBON DIOXIDE / CHLORIDE / CHOLESTEROL / CREATINE PHOSPHOKINASE / CREATININE / GLUCOSE / LACTATE DEHYDROGENASE / LIPASE / PHOSPHORUS / POTASSIUM / SODIUM / TOTAL BILIRUBIN / TOTAL PROTEIN / URIC ACID: tissue Plasma
[1] = 56 mg/kg, 120 h, dose level Low, time 5 day
[2] = 476 mg/kg, 72 h, dose level High, time 3 day
[3] = 476 mg/kg, 120 h, dose level High, time 5 day

Compound: CC[C@H]1OC(=O)[C@H](C)[C@@H](O[C@H]2C[C@@](C)(OC)[C@@H](O)[C@H](C)O2)[C@H](C)[C@@H](O[C@@H]2O[C@H](C)C[C@H](N(C)C)[C@H]2O)[C@](C)(OC)C[C@@H](C)C(=O)[C@H](C)[C@@H](O)[C@]1(C)O [CLARITHROMYCIN]
- ABSOLUTE BASOPHIL [1]: 0 CELLS/uL
- ABSOLUTE EOSINOPHIL [1]: 40 CELLS/uL
- ABSOLUTE LYMPHOCYTE [1]: 7764 CELLS/uL
- ABSOLUTE MONOCYTE [1]: 32 CELLS/uL
- ABSOLUTE SEGMENTED NEUTROPHIL [1]: 364 CELLS/uL
- BASOPHIL [1]: 0%
- EOSINOPHIL [1]: 0.67%
- ERYTHROCYTE COUNT [1]: 5.84 x10E6/uL
- HEMATOCRIT [1]: 35.03%
- HEMOGLOBIN [1]: 13.63 G/DL
- LEUKOCYTE COUNT [1]: 8.2 x10E3/uL
- LYMPHOCYTE [1]: 94.67%
- MEAN CORPUSCULAR HEMOGLOBIN [1]: 23.37 pg
- MEAN CORPUSCULAR HEMOGLOBIN CONCENTRATION [1]: 38.9 G/DL
- MEAN CORPUSCULAR VOLUME [1]: 60.03 fL
- MONOCYTE [1]: 0.33%
- NEUTROPHIL [1]: 4.33%
- NUCLEATED RED BLOOD CELLS [1]: 0 /100WBC
- PLATELET COUNT [1]: 1127.33 x10E3/uL
- ALANINE AMINOTRANSFERASE [1]: 56 u/L
- ALBUMIN [1]: 3.97 G/DL
- ALKALINE PHOSPHATASE [1]: 322 u/L
- ASPARTATE AMINOTRANSFERASE [1]: 90.33 u/L
- BLOOD UREA NITROGEN [1]: 16.67 mg/dL
- CARBON DIOXIDE [1]: 34 mmol/L
- CHLORIDE [1]: 98.67 MEQ/L
- CHOLESTEROL [1]: 84 mg/dL
- CREATINE PHOSPHOKINASE [1]: 286 u/L
- CREATININE [1]: 0.11 mg/dL
- GLUCOSE [1]: 141 mg/dL
- LACTATE DEHYDROGENASE [1]: 125 u/L
- LIPASE [1]: 13 u/L
- PHOSPHORUS [1]: 11.17 mg/dL
- POTASSIUM [1]: 6.34 MEQ/L
- SODIUM [1]: 144.27 MEQ/L
- TOTAL BILIRUBIN [1]: 0.17 mg/dL
- TOTAL PROTEIN [1]: 5.97 G/DL
- URIC ACID [1]: 0.73 mg/dL
- ABSOLUTE BASOPHIL [2]: 0 CELLS/uL
- ABSOLUTE EOSINOPHIL [2]: 46 CELLS/uL
- ABSOLUTE LYMPHOCYTE [2]: 13692.67 CELLS/uL
- ABSOLUTE MONOCYTE [2]: 172 CELLS/uL
- ABSOLUTE SEGMENTED NEUTROPHIL [2]: 556 CELLS/uL
- BASOPHIL [2]: 0%
- EOSINOPHIL [2]: 0.33%
- ERYTHROCYTE COUNT [2]: 5.74 x10E6/uL
- HEMATOCRIT [2]: 36.57%
- HEMOGLOBIN [2]: 14.2 G/DL
- LEUKOCYTE COUNT [2]: 14.47 x10E3/uL
- LYMPHOCYTE [2]: 94.67%
- MEAN CORPUSCULAR HEMOGLOBIN [2]: 24.73 pg
- MEAN CORPUSCULAR HEMOGLOBIN CONCENTRATION [2]: 38.83 G/DL
- MEAN CORPUSCULAR VOLUME [2]: 63.7 fL
- MONOCYTE [2]: 1%
- NEUTROPHIL [2]: 4%
- NUCLEATED RED BLOOD CELLS [2]: 0 /100WBC
- PLATELET COUNT [2]: 1345 x10E3/uL
- ALANINE AMINOTRANSFERASE [2]: 55.33 u/L
- ALBUMIN [2]: 3.8 G/DL
- ALKALINE PHOSPHATASE [2]: 227.33 u/L
- ASPARTATE AMINOTRANSFERASE [2]: 72.33 u/L
- BLOOD UREA NITROGEN [2]: 8.33 mg/dL
- CARBON DIOXIDE [2]: 29.67 mmol/L
- CHLORIDE [2]: 99.33 MEQ/L
- CHOLESTEROL [2]: 68 mg/dL
- CREATINE PHOSPHOKINASE [2]: 191.67 u/L
- CREATININE [2]: 0.37 mg/dL
- GLUCOSE [2]: 161 mg/dL
- LACTATE DEHYDROGENASE [2]: 112 u/L
- LIPASE [2]: 28.67 u/L
- PHOSPHORUS [2]: 11.53 mg/dL
- POTASSIUM [2]: 6.1 MEQ/L
- SODIUM [2]: 142.2 MEQ/L
- TOTAL BILIRUBIN [2]: 0.13 mg/dL
- TOTAL PROTEIN [2]: 5.83 G/DL
- URIC ACID [2]: 1.23 mg/dL
- ABSOLUTE BASOPHIL [3]: 0 CELLS/uL
- ABSOLUTE EOSINOPHIL [3]: 0 CELLS/uL
- ABSOLUTE LYMPHOCYTE [3]: 10830 CELLS/uL
- ABSOLUTE MONOCYTE [3]: 144.67 CELLS/uL
- ABSOLUTE SEGMENTED NEUTROPHIL [3]: 592 CELLS/uL
- BASOPHIL [3]: 0%
- EOSINOPHIL [3]: 0%
- ERYTHROCYTE COUNT [3]: 5.53 x10E6/uL
- HEMATOCRIT [3]: 34.87%
- HEMOGLOBIN [3]: 13.93 G/DL
- LEUKOCYTE COUNT [3]: 11.57 x10E3/uL
- LYMPHOCYTE [3]: 94%
- MEAN CORPUSCULAR HEMOGLOBIN [3]: 25.2 pg
- MEAN CORPUSCULAR HEMOGLOBIN CONCENTRATION [3]: 40 G/DL
- MEAN CORPUSCULAR VOLUME [3]: 63.07 fL
- MONOCYTE [3]: 1%
- NEUTROPHIL [3]: 5%
- NUCLEATED RED BLOOD CELLS [3]: 0 /100WBC
- PLATELET COUNT [3]: 1171.67 x10E3/uL
- ALANINE AMINOTRANSFERASE [3]: 58 u/L
- ALBUMIN [3]: 3.67 G/DL
- ALKALINE PHOSPHATASE [3]: 256.67 u/L
- ASPARTATE AMINOTRANSFERASE [3]: 67 u/L
- BLOOD UREA NITROGEN [3]: 13.33 mg/dL
- CARBON DIOXIDE [3]: 34.67 mmol/L
- CHLORIDE [3]: 98 MEQ/L
- CHOLESTEROL [3]: 64.33 mg/dL
- CREATINE PHOSPHOKINASE [3]: 178.33 u/L
- CREATININE [3]: 0.18 mg/dL
- GLUCOSE [3]: 126.67 mg/dL
- LACTATE DEHYDROGENASE [3]: 105.33 u/L
- LIPASE [3]: 11.67 u/L
- PHOSPHORUS [3]: 9.63 mg/dL
- POTASSIUM [3]: 6.01 MEQ/L
- SODIUM [3]: 142.53 MEQ/L
- TOTAL BILIRUBIN [3]: 0.13 mg/dL
- TOTAL PROTEIN [3]: 5.9 G/DL
- URIC ACID [3]: 0.6 mg/dL
